Assay results published in article PMC9826262, “Discovery of Benzo[d]imidazole‐6‐sulfonamides as Bromodomain and Extra‐Terminal Domain (BET) Inhibitors with Selectivity for the First Bromodomain” (Chemmedchem, 2022).
≈ marks a conversion by molar mass, not a printed value. Like-named read-outs stand apart in the source and are kept apart here.

What was measured:
[1] = CYPs and UGTs dual-activity microsomal stability; assay type: in vitro ADME; settings: human liver microsomes; alamethicin, NADPH and UDPGA cofactors; 37 °C, 60 min
Protocol: In this study, the CYPs and UGTs “dual‐activity” microsomal stability assay was carried out to follow the loss of the test compounds over time under CYP‐ and UGT‐mediated metabolic pathways. In detail, the compounds were added to human liver microsomes in the presence of alamethicin, NADPH and UDPGA as cofactors.[24] Alamethicin, a pore‐forming peptide, was used to activate UGTs in human liver microsomes. Testosterone was used as positive control while the negative control was prepared by incubation of the compounds without cofactors up to 60 min. The negative control is essential to detect problems such as non‐specific protein binding or heat instability.
Instrumentation and chromatographic conditions. The metabolic stability of investigated compounds was monitored using a Nexera UHPLC system (Shimadzu, Kyoto, Japan) consisting of a CBM‐20A controller, two LC‐30AD pumps, an SPD‐M20A photo diode array detector, a CTO‐20AC column oven and, a SIL‐30AC autosampler. The chromatographic analyses were accomplished on a Kinetex® Evo C18 column, 150×2.1 mm×2.6 μm (Phenomenex®, Bologna, Italy) maintained at 40 °C. The optimal mobile phase consisted of 0.1 % HCOOH/H2O v/v (A) and 0.1 % HCOOH/ACN v/v (B) delivered at constant flow rate of 0.5 mL/min ^−1. Analysis was performed in gradient elution as follows: 0–8.00 min, 5–95 % B; 8.00–10.00 min, isocratic to 95 % B; then five minutes for column re‐equilibration. Data acquisition was set in the range 190–800 nm and chromatograms were monitored at 254 nm.
In vitro drug metabolism using human liver microsomes. 25 μL of 5 mg/mL human […] microsomes (Thermo Fisher Scientific, Bremen, Germany) were pre‐incubated with 0.625 μL of 100 μg/mL alamethicin. Then 2.5 μL of sample (5 mM) with 168 μL of 100 mM phosphate buffer (pH 7.4), 4 μL of 500 mM MgCl2 were added, the mixture was incubated at 37 °C for 5 min. Optimal UGT activity can be achieved by the addition of MgCl2 and alamethicin as pore forming antibiotic. These components allow for the efficient transfer of a glucuronide product and the cofactor uridine 5′‐diphospho‐α‐D‐glucuronic acid (UDPGA) within the microsomal matrix. The reaction has started by adding 50 μL of mix NADPH 20 mM and UDP‐GlcUA 20 mM as cofactors (1 : 1 v/v) and carried out 37 °C for 60 min in a Thermomixer comfort (Eppendorf, Hamburg, Germany). The reaction was stopped by the addition of 200 μL ice‐cold acetonitrile and then samples were centrifuged at 14,000 rpm at 25 °C for 5 min (Eppendorf® microcentrifuge 5424, Hamburg, Germany). The supernatants were collected and injected in UHPLC. The control at 0 min was obtained by addition of ice‐cold acetonitrile immediately after incubation with microsomes. […]

[2] = Nephelometric solubility determination; assay type: physicochemical; settings: for solubility: aqueous buffer, kinetic from dmso stock, PBS with 1 % DMSO, tested at 50 and 100 μM, room temperature, read-out: Solubility (highest concentration where no precipitate was detected)
Protocol: Solubility determination. Solubility of the compounds was determined using Nepheloskan Ascent® (Labsystems). The experiments were performed at room temperature in 96‐well plates in a final volume of 300 μL. Each compound was tested in quadruplicate at the concentrations of 50 and 100 μM in PBS with 1 % DMSO. The measurements were performed at 4 different time points (T0, 30 min, 60 min, 90 min) from the preparation of the samples. Data obtained were compared to control (PBS with 1 % DMSO) and the ratio sample/control was determined for each compound. Compounds are considered soluble if the ratio is≤3.

in vitro = settings: PAMPA, pH 7.4
Protocol: Membrane permeability was estimated by the well‐validated parallel artificial membrane permeability assay (PAMPA) technique.[17, 26]
Parallel Artificial Membrane Permeability Assay (PAMPA). Donor solution (0.2 mM) was prepared by diluting 20 mM dimethyl sulfoxide (DMSO) compound stock solution using phosphate buffer (pH 7.4, 0.01 M). Filters were coated with 5 μL of a 1 % (w/v) dodecane solution of L‐α‐phosphatidylcholine. Donor solution (150 μL) was added to each well of the filter plate. To each well of the acceptor plate, 300 μL of solution (5 % DMSO in phosphate buffer) was added. […] The sandwich was incubated for 24 h at room temperature under gentle shaking. After the incubation time, the sandwich plates were separated and 250 μL of the acceptor plate was transferred to a UV quartz microtiter plate and measured by UV spectroscopy, using a Multiskan GO microplate spectrophotometer (Thermo Fisher Scientific) at 250–500 nm at a step of 5 nm. Reference solutions (250 μL) were prepared diluting the sample stock solutions to the same concentration as that with no membrane barrier.
In this equation, VR is the volume of the acceptor compartment (0.3 cm^3), VD is the donor volume (0.15 cm^3), A is the accessible filter area (0.24 cm^2), and t is the incubation time in seconds.

[3] = test system: BD1 and BD2 of BET proteins (BRD2, BRD3, BRD4 and BRDT); experiment: Protein stability shift assay (ΔTm), BET bromodomains; assay type: binding; settings: compound 10 μM; protein 2 μM
Protocol: The compounds were tested at 10 μM fixed dose and the pan‐BET inhibitor 1 was used as a reference compound.[22] The results obtained from this screening supported our design strategy.
Protein stability shift assay. Thermal melting experiments were carried out using an Mx3005p Real Time PCR machine (Stratagene). Proteins were buffered in 10 mM HEPES pH 7.5, 500 mM NaCl and assayed in a 96‐well plate at a final concentration of 2 μM in 20 μL volume. Compounds were added at a final concentration of 10 μM. SYPRO Orange (Molecular Probes) was added as a fluorescence probe at a dilution of 1 : 1000. Excitation and emission filters for the SYPRO‐Orange dye were set to 465 nm and 590 nm, respectively. The temperature was raised with a step of 3 °C per minute from 25 °C to 96 °C and fluorescence readings were taken at each interval. The temperature dependence of the fluorescence during the protein denaturation process was approximated by the equation yT=yF+yU-yF/1+e^ΔuGT/RT
where ΔuG(T) is the difference in unfolding free energy between the folded and unfolded state, R is the gas constant and yF and yU are the fluorescence intensity of the probe in the presence of completely folded and unfolded protein, respectively. The baselines of the denatured and native states were approximated by a linear fit. The observed temperature shifts, ΔTm obs, were recorded as the difference between the transition midpoints of sample and reference wells containing protein without ligand in the same plate and determined by non‐linear least squares fit.

BRD2(BD1) = target: T1, BRD2(BD1) (Homo sapiens, UniProt P25440); experiment: TR-FRET displacement binding assay; settings: AlexaFluor647 derivative of 1
T1 construct: tested on BD1 and BD2 domains (6×His‐tagged) of each BET protein
T1 sequence (P25440 74-180 limits assumed): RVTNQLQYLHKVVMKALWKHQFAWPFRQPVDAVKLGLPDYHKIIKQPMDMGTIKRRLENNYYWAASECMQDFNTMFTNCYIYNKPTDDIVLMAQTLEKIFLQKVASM
Protocol: (§1) TR‐FRET assay. […] Compound was diluted in assay buffer (150 mM HEPES, 150 mM NaCl, 5 % glycerol, 1 mM DTT, and 1 mM CHAPS, pH 7.4), starting from a stock solution of 10 mM (100 % DMSO). The highest concentration tested was 100 μM and from this concentration 11 three‐fold dilutions were prepared. […] TR‐FRET ratio was calculated using the following equation: ratio=acceptorfluorescenceat665nm/donorfluorescenceat615nm×1000
(§2) Compound was tested in triplicate and data were analyzed using GraphPad Prism software (version 8.0) using the equation log(inhibitor) vs. normalized response‐variable slope.

BRD2(BD2) = target: T2, BRD2(BD2) (Homo sapiens, UniProt P25440); experiment: TR-FRET displacement binding assay; settings: AlexaFluor647 derivative of 1
T2 construct: tested on BD1 and BD2 domains (6×His‐tagged) of each BET protein
T2 sequence (P25440 344-453 limits assumed): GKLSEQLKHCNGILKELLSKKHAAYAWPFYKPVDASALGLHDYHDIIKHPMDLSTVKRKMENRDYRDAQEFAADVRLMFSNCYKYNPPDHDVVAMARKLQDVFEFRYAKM
Protocol: as §1, §2

BRD3(BD1) = target: T3, BRD3(BD1) (Homo sapiens, UniProt Q15059); experiment: TR-FRET displacement binding assay; settings: AlexaFluor647 derivative of 1
T3 construct: tested on BD1 and BD2 domains (6×His‐tagged) of each BET protein
T3 sequence (Q15059 34-140 limits assumed): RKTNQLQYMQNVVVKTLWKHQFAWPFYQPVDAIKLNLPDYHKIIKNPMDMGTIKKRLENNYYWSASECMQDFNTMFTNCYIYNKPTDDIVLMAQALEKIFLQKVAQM
Protocol: as §1, §2

BRD3(BD2) = target: T4, BRD3(BD2) (Homo sapiens, UniProt Q15059); experiment: TR-FRET displacement binding assay; settings: AlexaFluor647 derivative of 1
T4 construct: tested on BD1 and BD2 domains (6×His‐tagged) of each BET protein
T4 sequence (Q15059 306-415 limits assumed): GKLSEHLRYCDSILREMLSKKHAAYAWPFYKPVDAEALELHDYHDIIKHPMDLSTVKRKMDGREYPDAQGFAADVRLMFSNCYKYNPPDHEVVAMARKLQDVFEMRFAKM
Protocol: as §1, §2

HeLa cells = experiment: MTT cell viability assay; assay type: cell-based, human; settings: 50 μM, 72 h
Protocol: Cells were incubated with different compound concentrations (50 μM, 5 μM and 0.5 μM) for different times (24, 48 and 72 h) and cellular viability was determined performing an MTT (3‐(4,5‐dimethylthiazol‐2‐yl)‐2,5‐diphenyl‐2H‐tetrazolium bromide) assay.
Cell Viability Assay. HeLa cell line was cultured in DMEM supplemented with 10 % (v/v) fetal bovine serum, 100 U/mL penicillin, 100 μg/mL streptomycin, and 2 mM L‐glutamine at 37 °C in a 5 % CO2 atmosphere. Cell viability was determined using a 3‐(4,5‐dimethylthiazol‐2‐yl)‐2,5‐diphenyltetrazolium bromide (MTT) assay. […] The mitochondrial dependent reduction of MTT to formazan was used to assess cell viability. Live cells reduce yellow MTT to purple formazan. The formazan was solubilized in DMSO, and absorbance was measured at 550 nm and corrected for 620 nm background. Experiments were performed in quadruplicate and all values are expressed as the percentage of the control containing 1 % DMSO.

[4] = parameters: method as in PMID 32193360; settings: cited from earlier work
BRD4 BD1 = target: T5, BRD4 BD1 (Homo sapiens, UniProt O60885); settings: cited from earlier work
T5 construct: The microsyringe was loaded with a solution of BRD4 BD1; His6 (cleaved yes); made in house; host or cells: E. coli BL21(DE3)-R3-pRARE2

BRD4 BD2 = settings: cited from earlier work
[5] = test system: BD1 and BD2 of BRD2 and BRD3; settings: cited from earlier work
BD1 in all BET proteins = settings: cited from earlier work
MV4‐11 cell line = settings: read-out: IC50 cell growth MV4‐11; cited from earlier work
HL60 cell line = settings: read-out: IC50 cell growth HL60; cited from earlier work
THP‐1 cell line = settings: read-out: IC50 cell growth THP‐1; cited from earlier work
BD1 of BET proteins = settings: cited from earlier work

## Cc1cc(-c2nc3ccc(S(=O)(=O)Nc4ccccn4)cc3[nH]2)cc(C)c1O [9 a, 2‐(4‐hydroxy‐3,5‐dimethylphenyl)‐N‐(pyridin‐2‐yl)‐1H‐benzo[d]imidazole‐6‐sulfonamide]
[1]
  CYPs and UGTs “dual‐activity” microsomal stability (percentage of the parent compound turnover): 1.0±0.3%
[2]; 100 μM, aqueous solution with 1 % DMSO
  Solubility at 100 μM: still soluble
[2]
  solubility: 100 µM (≈ 39.4 µg/mL)
In vitro
  Papp at 24 h, 0.2 mM: 0.107 ×10⁻⁶ cm/s
[3]
  ΔTm screening against BET bromodomains: increase in the melting temperature of all BET proteins
BRD2(BD1)
  IC50: 126 ± 19 nM
BRD2(BD2)
  IC50: 22000 ± 8000 nM
BRD3(BD1)
  IC50: 180 ± 20 nM
BRD3(BD2)
  IC50: 7000 ± 3000 nM
HeLa cells
  Decrease of cell viability: around 30%

## COCc1nc2cnc3cc(-c4c(C)noc4C)c(OC[C@H]4CCNC4)cc3c2n1[C@H](C)c1ccccc1 [Compound 5, GSK778]
[4]
  Pharmacokinetic properties: poor pharmacokinetic properties

## Cc1cc(/N=N/c2ccc(S(=O)(=O)Nc3ccc(C#N)cc3)cc2)cc(C)c1O [7 b, MS611]
[1]
  CYPs and UGTs “dual‐activity” microsomal stability (percentage of the parent compound turnover): 7.5±1.0%
[2]
  solubility: 50 µM (≈ 20.3 µg/mL)
In vitro
  Papp at 24 h, 0.2 mM: 1.1 ×10⁻⁶ cm/s
BRD4 BD1
  Ki: 410 nM
BRD4 BD2
  Ki: 41300 nM
[5]
  Selectivity between BD1 and BD2 of BRD2 and BRD3 (words): almost no selectivity between each BDs domain of BRD3 and BRD2
[5]; listed as MS611
  Selectivity between BD1 and BD2 of BRD2 and BRD3 (words): almost no difference in binding affinity between BD1 and BD2 of BRD2 and BRD3

## Cc1cc2c(-c3ccco3)cnc(N[C@@H]3CCN(C)C[C@H]3C(=O)NC3CCCCC3)c2[nH]c1=O [Compound 6, GSK789]
BD1 in all BET proteins
  IC50: 30 nM
  Selectivity for BD1 over BD2 in all BET proteins: 1000 fold
MV4‐11 cell line
  IC50: 25 nM
HL60 cell line
  IC50: 390 nM
THP‐1 cell line
  IC50: 258 nM

## CC(=O)NCCCCn1c2c(c3ccccc31)C(=O)NCC2 [Olinone]
BD1 of BET proteins
  Kd: 3400 nM
